Source: patent US12173088B2, “Anti-microbial peptides” (priority 2018, dated 2024)
≈ marks a conversion by molar mass, not a printed value. Square brackets hold non-standard residues; d marks the D form. Peptide text beside a SMILES is read from it. Orn = NCCC[C@H](N)C(=O)O

Assays:
S. aureus USA300 = assay: microbe, parasite or virus in culture; assay type: cell-based, Staphylococcus aureus; conditions: for MIC S. aureus USA 300: USA300
Excerpt: The bacterial strains used include the Gram-positive strains Staphylococcus aureus USA300 LAC, S. epidermidis 1457, and Bacillus subtilis 168, as well as the Gram-negative isolates Escherichia coli K12 and Acinetobacter baumannii B2367-12. Additional, drug resistance strains include Gram-positive Enterococcus faecium V286-17 (VRE) and S. aureus M838-17 (MRSA) and Gram-negative E. coli E423-17, E. coli E416-17 (ampC), and P. aeruginosa E411-17. Bacteria were cultivated in tryptic soy broth (TSB) (BD Bioscience, MD).
(§1) The antibacterial activity of peptides was evaluated using a standard broth microdilution protocol with minor modifications as described (Mishra, et al. (2012) J. Am. Chem. Soc., 134:12426-12429). In brief, logarithmic phase bacterial cultures (i.e., optical density at 600 nm≈0.5) were diluted to OD600 0.001 and partitioned into a 96-well polystyrene microplate at 90 μL per well. After treatment with 10 μL of peptide solutions two fold diluted to various concentrations, microplates were incubated at 37° C. overnight and read on a ChroMate® 4300 Microplate Reader at 630 nm (GMI, Ramsey, MN). […] To study the influence of medium conditions on the antimicrobial activity of peptides against S. aureus USA300, up to 200 mM sodium chloride (NaCl), 2 mM of calcium chloride, 5-10% of human serum, mouse plasma, fluid, or supernatants of tissue homogenates were included into the assays.
(§2) The bacterial strains used include the Gram-positive bacteria methicillin-resistant Staphylococcus aureus USA300, Enterococcus faecium V286-17 (VRE), S. aureus M838-17 (MRSA) and Gram-negative bacteria E. coli E423-17, E416-7 (ampC), P. aeruginosa E411-17, PA01, K. pneumoniae E406-17, ATCC13883, and A. baumannii B26-16. Bacteria were cultivated in tryptic soy broth (TSB) from BD Bioscience.
(§3) The antibacterial activity of peptides was evaluated using a standard broth microdilution protocol with minor modifications (Mishra, et al. (2017) Acta Biomater., 49:316-328). In brief, logarithmic phase bacterial cultures (i.e., optical density at 600 nm≈0.5) were diluted to 0.001 OD and aliquoted 90 μL per well into a 96-well polystyrene microplate. Added 10 μL peptides per well with various concentrations, plates were incubated at 37° C., overnight. Post incubation the plates are read at 630 nm using a ChroMate® Microplate Reader (GMI). […] To study the influence of medium conditions on the antimicrobial activity of peptides against S. aureus USA300 at different pHs (6.8, 7.2, and 8.0), 150 mM sodium chloride (NaCl), 5-10% of human serum, mouse plasma, and peritoneal fluid were included into the assays.

P. aeruginosa PAO1 = assay type: cell-based, Pseudomonas aeruginosa
Description: as §1, §2, §3

E. coli ATCC 25922 = assay type: cell-based, Escherichia coli; conditions: ATCC 25922
Description: as §1, §3

K. pneumoniae ATCC 13883 = assay type: cell-based, Klebsiella pneumoniae; conditions: ATCC 13883
Description: as §1, §2, §3

[1] = system: human red blood cells (hRBCs); assay: Hemolytic assay; assay type: cell-based
Description: Briefly, human red blood cells (hRBCs) were washed three times with phosphate buffer saline (PBS) and diluted to a 2% solution (v/v). After peptide treatment, incubation at 37° C. for one hour, and centrifugation at 5000 rpm for 10 minutes, aliquots of the supernatant were carefully transferred to a fresh 96-well microplate. The amount of hemoglobin released was measured at 545 nm. The percent lysis was calculated by assuming 100% release when human blood cells were treated with 2% Triton™ X-100, and 0% release when incubated with PBS buffer. The peptide concentration that caused 50% lysis of hRBCs is defined as HL50. The cell selectivity index (CSI) was calculated as the ratio between HL50 and MIC of the corresponding peptide against a select pathogenic species.
Hemolytic assays of peptides were performed as described (Mishra, et al. (2017) Acta Biomater., 49:316-328). Briefly, human red blood cells (hRBCs) obtained from UNMC Blood Bank. The blood washed 3× with isotonic saline (0.9% NaCl) and diluted to 2% blood cells (v/v). Peptide horine and verine at various concentrations were added into the 2% blood cells and incubated at 37° C. for 1 hour. Post incubation the plates were spun at 2000 rpm for 10 minutes, aliquots of the supernatant were carefully transferred to a fresh 96-well microplate. The amount of cells lysed is proportional to the hemoglobin released and measured at 545 nm using a ChroMate® microplate reader. The percent lysis was calculated by assuming 100% release when human blood cells were treated with 1% Triton™ X-100, and 0% release when incubated with PBS. The peptide concentration that caused 50% lysis of hRBCs is defined as HL50.

| Compound | MIC S. aureus USA 300 (S. aureus USA300) | MIC P. aeruginosa PAO1 (P. aeruginosa PAO1) | MIC E. coli ATCC 25922 (E. coli ATCC 25922) | MIC K. pneumoniae (K. pneumoniae ATCC 13883) | MIC K. pneumonia ATCC 13883 (K. pneumoniae ATCC 13883) | HL50 [1] | Antimicrobial activity (S. aureus USA300; at 25 μM) | Activity against Pseudomonas aeruginosa PAO1 (P. aeruginosa PAO1) |
| --- | --- | --- | --- | --- | --- | --- | --- | --- |
| CC(C)C[C@H](NC(=O)[C@H](CC(C)C)NC(=O)[C@H](CCCCN)NC(=O)CNC(=O)[C@H](CC(C)C)NC(=O)[C@H](CO)NC(=O)[C@H](CO)NC(=O)[C@H](CC(C)C)NC(=O)CN)C(N)=O [DFT526, GL-S--SL-GKLL] (H-GLSSLGKLL-NH2; N-terminus and C-terminus assumed) | >25 µM | >25 µM | >25 µM |  | >25 µM | >300 µM |  |  |
| CC(C)C[C@H](NC(=O)[C@H](CC(C)C)NC(=O)[C@H](CCCCN)NC(=O)CNC(=O)[C@H](CC(C)C)NC(=O)[C@H](CO)NC(=O)[C@H](CO)NC(=O)[C@H](CC(C)C)NC(=O)[C@H](CC(C)C)NC(=O)CN)C(N)=O [DFT525, GLLS--SL-GKLL] (H-GLLSSLGKLL-NH2; N-terminus and C-terminus assumed) | >25 µM | >25 µM | >25 µM |  | >25 µM | >300 µM |  |  |
| CC(C)C[C@H](NC(=O)[C@H](CC(C)C)NC(=O)[C@H](CCCCN)NC(=O)CNC(=O)[C@H](CC(C)C)NC(=O)[C@H](CC(C)C)NC(=O)[C@H](CO)NC(=O)[C@H](CC(C)C)NC(=O)[C@H](CC(C)C)NC(=O)[C@H](CO)NC(=O)[C@H](C)NC(=O)[C@H](CC(C)C)NC(=O)CN)C(N)=O [DFT507, GLASLLSLLGKLL] (H-GLASLLSLLGKLL-NH2; N-terminus assumed) | 0.78 µM (≈ 1.01 µg/mL) | >25 µM | >25 µM | >25 µM |  | <3.1 µM |  |  |
| CC(C)C[C@H](NC(=O)[C@H](CC(C)C)NC(=O)[C@H](CCCCN)NC(=O)CNC(=O)[C@H](CC(C)C)NC(=O)[C@H](C)NC(=O)[C@H](CCCCN)NC(=O)[C@H](CC(C)C)NC(=O)[C@H](C)NC(=O)[C@H](CO)NC(=O)[C@H](CC(C)C)NC(=O)[C@H](CC(C)C)NC(=O)CN)C(N)=O [DFT514, GLLSALKALGKLL] (H-GLLSALKALGKLL-NH2; N-terminus assumed) | 1.56 µM (≈ 2.02 µg/mL) | >25 µM | 3.1 µM (≈ 4.02 µg/mL) | 3.1 µM (≈ 4.02 µg/mL) |  | 36 µM |  |  |
| CC(C)C[C@H](NC(=O)[C@H](CC(C)C)NC(=O)[C@H](CCCN)NC(=O)CNC(=O)[C@H](CC(C)C)NC(=O)[C@H](C)NC(=O)[C@H](CCCN)NC(=O)[C@H](CC(C)C)NC(=O)[C@H](C)NC(=O)[C@H](CO)NC(=O)[C@H](CC(C)C)NC(=O)[C@H](CC(C)C)NC(=O)CN)C(N)=O [DFT516, GLLSALOALGOLL] (H-GLLSAL[Orn]ALG[Orn]LL-NH2; N-terminus assumed) | 1.56 µM (≈ 1.98 µg/mL) | >25 µM | 3.1 to 6.25 µM | 3.1 µM (≈ 3.93 µg/mL) |  | 36 µM |  |  |
| CC(C)C[C@H](NC(=O)[C@H](CC(C)C)NC(=O)[C@H](CCCCN)NC(=O)CNC(=O)[C@H](CC(C)C)NC(=O)[C@H](CC(C)C)NC(=O)[C@H](CO)NC(=O)[C@H](CC(C)C)NC(=O)[C@H](CC(C)C)NC(=O)[C@H](CO)NC(=O)[C@H](CC(C)C)NC(=O)[C@H](C)NC(=O)CN)C(N)=O [DFT506, GALSLLSLLGKLL] (H-GALSLLSLLGKLL-NH2; N-terminus assumed) | 0.78 µM (≈ 1.01 µg/mL) | 12.5 µM (≈ 16.2 µg/mL) | 3.1 µM (≈ 4.02 µg/mL) | 6.2 µM (≈ 8.04 µg/mL) |  | 4 µM |  | active |

The next lines start with results.

| MIC S. aureus USA 300 (S. aureus USA300) | MIC P. aeruginosa PAO1 (P. aeruginosa PAO1) | MIC E. coli ATCC 25922 (E. coli ATCC 25922) | MIC K. pneumoniae (K. pneumoniae ATCC 13883) | MIC K. pneumonia ATCC 13883 (K. pneumoniae ATCC 13883) | Compound | HL50 [1] | Antimicrobial activity (S. aureus USA300; at 25 μM) | Activity against Pseudomonas aeruginosa PAO1 (P. aeruginosa PAO1) |
| --- | --- | --- | --- | --- | --- | --- | --- | --- |
| 1.56 µM (≈ 2.02 µg/mL) | >25 µM | >25 µM | >25 µM |  | CC(C)C[C@H](NC(=O)[C@H](CC(C)C)NC(=O)[C@H](CCCCN)NC(=O)CNC(=O)[C@H](CC(C)C)NC(=O)[C@H](C)NC(=O)[C@H](CO)NC(=O)[C@H](CC(C)C)NC(=O)[C@H](CC(C)C)NC(=O)[C@H](CO)NC(=O)[C@H](CC(C)C)NC(=O)[C@H](CC(C)C)NC(=O)CN)C(N)=O [DFT510, GLLSLLSALGKLL] (H-GLLSLLSALGKLL-NH2; N-terminus assumed) | 19 µM |  |  |
| 1.56 µM (≈ 2 µg/mL) | >25 µM | 3.1 µM (≈ 3.97 µg/mL) | 3.1 µM (≈ 3.97 µg/mL) |  | CC(C)C[C@H](NC(=O)[C@H](CC(C)C)NC(=O)[C@H](CCCCN)NC(=O)CNC(=O)[C@H](CC(C)C)NC(=O)[C@H](C)NC(=O)[C@H](CCCN)NC(=O)[C@H](CC(C)C)NC(=O)[C@H](C)NC(=O)[C@H](CO)NC(=O)[C@H](CC(C)C)NC(=O)[C@H](CC(C)C)NC(=O)CN)C(N)=O [DFT515, GLLSALOALGKLL] (H-GLLSAL[Orn]ALGKLL-NH2; N-terminus assumed) | 36 µM |  |  |
| >25 µM | >25 µM | >25 µM | >25 µM |  | CC(C)C[C@H](NC(=O)[C@H](C)NC(=O)[C@H](CCCCN)NC(=O)CNC(=O)[C@H](CC(C)C)NC(=O)[C@H](C)NC(=O)[C@H](CCCCN)NC(=O)[C@H](CC(C)C)NC(=O)[C@H](C)NC(=O)[C@H](CO)NC(=O)[C@H](CC(C)C)NC(=O)[C@H](C)NC(=O)CN)C(N)=O [DFT530, GALSALKALGKAL] (H-GALSALKALGKAL-NH2; N-terminus assumed) | >100 µM | inactive |  |
| 0.78 µM (≈ 1.01 µg/mL) | >25 µM | 3.1 µM (≈ 4.02 µg/mL) | 3.1 µM (≈ 4.02 µg/mL) |  | CC(C)C[C@H](NC(=O)[C@H](C)NC(=O)[C@H](CCCCN)NC(=O)CNC(=O)[C@H](CC(C)C)NC(=O)[C@H](CC(C)C)NC(=O)[C@H](CO)NC(=O)[C@H](CC(C)C)NC(=O)[C@H](CC(C)C)NC(=O)[C@H](CO)NC(=O)[C@H](CC(C)C)NC(=O)[C@H](CC(C)C)NC(=O)CN)C(N)=O [DFT512, GLLSLLSLLGKAL] (H-GLLSLLSLLGKAL-NH2; N-terminus assumed) | 4 µM |  |  |
| 0.78 µM (≈ 1.01 µg/mL) | 6.2 to 12.5 µM | 1.5 to 3.1 µM | 3.1 µM (≈ 4.02 µg/mL) |  | CC(C)C[C@H](NC(=O)[C@H](CC(C)C)NC(=O)[C@H](CCCCN)NC(=O)CNC(=O)[C@H](CC(C)C)NC(=O)[C@H](CC(C)C)NC(=O)[C@H](CO)NC(=O)[C@H](C)NC(=O)[C@H](CC(C)C)NC(=O)[C@H](CO)NC(=O)[C@H](CC(C)C)NC(=O)[C@H](CC(C)C)NC(=O)CN)C(N)=O [DFT509, GLLSLASLLGKLL] (H-GLLSLASLLGKLL-NH2; N-terminus assumed) | 4 µM |  |  |
